Source: publication PMC6656724 (Communications Biology, 2019)
Several values for one entry are separate records, joined by “and”; a condition that tells them apart may be missing. Equal entries are not always repeated. Where two headings read alike, the source gives them in different places.

Key:
[1] = Rat brain penetration study; type: in vivo, male Han Wistar rats; settings: 1b 5 mg/kg i.v.; for In blood, prodrug 1b / In brain, prodrug 1b / Unbound brain, prodrug 1b / concentration at 5 min / concentration at 15 min / concentration at 30 min / concentration at 60 min: single rats; for In brain, prodrug 1b / Unbound brain, prodrug 1b: listed as prodrug 1b; for concentration at 5 min / concentration at 15 min / concentration at 30 min / concentration at 60 min: intravenous, 5 mg free base/kg
Experimental: Prodrug 1b was dosed as a bolus solution intravenously at 5 mg free base/kg (dose volume: 1 mL/kg; dose vehicle: 10% DMSO; 60% PEG400; 30% MilliQ H2O) to male Han Wistar rats (n = 12). At 5, 15, 30 and 60 min following intravenous bolus injection of prodrug 1b, […] (n = 3/timepoint) were placed under terminal anaesthesia with isofluorane. A blood sample was taken by cardiac puncture, the […] decapitated and the brain removed. Brain weight was noted and each brain homogenised with two volumes of methanol:water (1:1; 2 mL/g brain). Each blood sample was diluted with distilled water (1:2). Diluted blood and the brain homogenates were then stored frozen until preparation and analysis by UPLC-MS/MS, monitoring for prodrug 1b and production of inhibitor 1. For each rat at each timepoint for 1, the concentration in brain (ng/g) was divided by the concentration in blood (ng/mL) to give a brain:blood ratio. The mean value obtained was quoted.
A rapid and sensitive ultra-performance chromatography/tandem mass spectrometry (UPLC-MS/MS) method was developed and validated for the determination of inhibitor 1 and prodrug 1b (rat only). Chromatographic analysis was conducted on a Waters Acquity™ UPLC system. Chromatographic separation was performed with an Acquity™ UPLC BEH C18 column (50 × 2.1 mm, 1.7 µm, 130Å; Waters Corp.) maintained at 40 °C in a column oven. The mobile phase consisted of water with 0.01% formic acid and ACN with 0.01 % formic acid and it was delivered at a flow rate of 0.6 mL/min under gradient eluent conditions within an analysis cycle time of 3 min. The mass detection was conducted on a Waters Xevo™ TQs mass spectrometer equipped with a ScanWave™ technology. Quantitation of the analyte was performed in electrospray positive ionisation mode (ESI^+) using multiple reaction monitoring. The optimised fragmentation transition was m/z = 270.17 → 196.19 (mouse) or m/z = 270.17 → 223.76 (rat) for inhibitor 1 and m/z = 297.83 → 195.74 for prodrug 1b (rat).
Sample extraction for blood and brain homogenate was by protein precipitation (1:3 or 1:6) using ACN containing suitable internal standard. Extracts were vortexed followed by centrifugation (2800 rpm for 10 min). An aliquot of each supernatant was then diluted two-fold in distilled water ready for analysis by UPLC-MS/MS.
The weighted 1/x^2 calibration line was linear in the dynamic range of 1–5000 ng/mL for inhibitor 1 and 1–1000 ng/mL for prodrug 1b with a correlation coefficient (r^2) > 0.99 (inhibitor 1) or 0.98 (prodrug 1b). The quality control samples (QC) were prepared by using the same spiking scheme as the calibration samples and up to four different target concentration brain levels: 2 ng/mL (LQC), 40 ng/mL (MQC), 100 ng/mL (HQC) and 2000 ng/mL. Data collection, peak integration and calculations were performed using MassLynx software, version 2.1.

MDR1 (P-glycoprotein) = MDR1 (P-glycoprotein) (Homo sapiens, UniProt P08183); type: in vitro ADME; settings: from effective efflux ratio
MDR1 (P-glycoprotein), sequence (P08183 whole entry): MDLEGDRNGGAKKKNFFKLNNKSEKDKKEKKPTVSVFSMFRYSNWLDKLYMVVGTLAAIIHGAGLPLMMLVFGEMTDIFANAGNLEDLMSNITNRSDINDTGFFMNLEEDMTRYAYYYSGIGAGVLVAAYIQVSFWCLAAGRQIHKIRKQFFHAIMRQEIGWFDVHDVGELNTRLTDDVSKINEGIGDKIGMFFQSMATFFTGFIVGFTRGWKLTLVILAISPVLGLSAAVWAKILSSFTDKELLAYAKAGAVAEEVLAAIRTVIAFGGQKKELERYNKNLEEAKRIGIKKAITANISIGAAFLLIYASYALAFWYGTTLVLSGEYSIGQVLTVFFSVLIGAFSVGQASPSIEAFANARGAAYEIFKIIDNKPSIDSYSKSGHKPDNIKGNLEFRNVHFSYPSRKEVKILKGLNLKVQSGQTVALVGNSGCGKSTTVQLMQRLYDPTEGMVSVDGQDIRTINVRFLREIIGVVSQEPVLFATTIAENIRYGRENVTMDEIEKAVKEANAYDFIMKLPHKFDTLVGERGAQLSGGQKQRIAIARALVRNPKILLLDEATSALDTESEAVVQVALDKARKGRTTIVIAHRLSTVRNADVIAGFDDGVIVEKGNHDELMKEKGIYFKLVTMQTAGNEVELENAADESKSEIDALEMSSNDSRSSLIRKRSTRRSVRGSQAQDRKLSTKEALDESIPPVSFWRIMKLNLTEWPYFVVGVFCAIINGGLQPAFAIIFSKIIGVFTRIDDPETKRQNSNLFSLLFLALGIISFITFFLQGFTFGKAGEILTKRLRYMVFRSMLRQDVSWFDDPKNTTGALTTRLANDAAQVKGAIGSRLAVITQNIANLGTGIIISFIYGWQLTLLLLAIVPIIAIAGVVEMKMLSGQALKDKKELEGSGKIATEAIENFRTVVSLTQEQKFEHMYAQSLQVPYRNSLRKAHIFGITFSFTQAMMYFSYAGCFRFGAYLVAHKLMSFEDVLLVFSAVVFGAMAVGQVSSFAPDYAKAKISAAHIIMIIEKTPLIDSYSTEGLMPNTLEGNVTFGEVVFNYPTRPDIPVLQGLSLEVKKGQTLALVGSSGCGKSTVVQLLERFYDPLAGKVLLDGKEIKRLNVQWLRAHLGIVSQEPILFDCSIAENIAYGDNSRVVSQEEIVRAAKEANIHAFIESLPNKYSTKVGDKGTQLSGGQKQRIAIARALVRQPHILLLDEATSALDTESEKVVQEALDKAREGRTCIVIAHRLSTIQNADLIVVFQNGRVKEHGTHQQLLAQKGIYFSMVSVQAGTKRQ
Experimental: internal standard at each timepoint. […]
including an analytical internal standard.
Apparent permeability (Papp) values were determined from the relationship: […]
Where V is the volume of each Transwell compartment (apical 125 µL, basolateral 600 µL), and concentrations are the relative MS responses for compound (normalized to internal standard) in the donor chamber before incubation and acceptor chamber at the end of the incubation. Area = area of cells exposed for drug transfer (0.33 cm 2).
Efflux ratios (Papp B>A / Papp A>B) were calculated for each compound from the […]
MDR1-MDCK cell line has been engineered to overexpress the efflux transporter, MDR1 (P-glycoprotein), and a finding of good permeability B>A, but poor […]
order to confirm the involvement of MDR1 in any efflux seen, an “ef fective efflux ratio” (EER) was calculated by comparing compound efflux ratios (ER) in the two cell types, i.e. EER = ER (MDR1-MDCK)/ ER (wild-type MDCK). This ratio illustrates the effect of the over-expressed MDR1 normalised for the background movement of compound through the wild-type cells. […]
Compound recovery from the wells was determined from MS responses (normalized to internal standard) in donor and acceptor chambers at the end of incubation compared to response in the donor chamber pre-incubation. […]

[2] = Elimination in urine after intravenous administration; type: in vivo, female C57BL/6 mouse; settings: mouse, 1 mg free base/kg i.v.
Experimental: Supplementary Table 8. Elimination of inhibitor 1 in urine following single
intravenous administration at 1 mg free base/kg to a female C57BL/6 mouse.
Time Absolute amount of drug Amount of drug in urine

## CCOC(=O)CN1C(=O)COc2cc(C)c(Cl)c(C)c21 [1b]
[1]; 5 min
  In blood, prodrug 1b: ≤ 3 ng/mL
  In brain, prodrug 1b: 2623 ng/g and 2264 ng/g
  Unbound brain, prodrug 1b: 42 ng/g and 36 ng/g
[1]; 15 min
  In blood, prodrug 1b: ≤ 3 ng/mL
  In brain, prodrug 1b: 715 ng/g and 791 ng/g
  Unbound brain, prodrug 1b: 11 ng/g and 13 ng/g
[1]; 30 min
  In blood, prodrug 1b: ≤ 3 ng/mL
  In brain, prodrug 1b: 203 ng/g
  Unbound brain, prodrug 1b: 3 ng/g
[1]; 60 min
  In blood, prodrug 1b: ≤ 3 ng/mL
[1]; male, Han Wistar, brain (unbound), 5 min, read-out: Unbound brain, prodrug 1b
  concentration at 5 min: 38 ng/g
[1]; male, Han Wistar, brain (unbound), 15 min, read-out: Unbound brain, prodrug 1b
  concentration at 15 min: 13 ng/g
[1]; male, Han Wistar, brain (unbound), 30 min, read-out: Unbound brain, prodrug 1b
  concentration at 30 min: 4 ng/g
[1]; male, Han Wistar, brain, 5 min, read-out: In brain, prodrug 1b
  concentration at 5 min: 2350 ng/g
[1]; male, Han Wistar, brain, 15 min, read-out: In brain, prodrug 1b
  concentration at 15 min: 829 ng/g
[1]; male, Han Wistar, brain, 30 min, read-out: In brain, prodrug 1b
  concentration at 30 min: 240 ng/g
[1]; male, Han Wistar, brain, 60 min, read-out: In brain, prodrug 1b
  concentration at 60 min: 62 ng/g
[1]; male, Han Wistar, brain, 60 min, read-out: Unbound brain, prodrug 1b
  concentration at 60 min: 1 ng/g
[1]; male, Han Wistar, brain, iv, read-out: Time of maximal concentration of 1b in the brain (converted)
  Tmax: 5 min
[1]; male, Han Wistar, whole blood, 5 min, read-out: In blood, prodrug 1b
  concentration at 5 min: ≤ 3 ng/mL
[1]; male, Han Wistar, whole blood, 15 min, read-out: In blood, prodrug 1b
  concentration at 15 min: ≤ 3 ng/mL
[1]; male, Han Wistar, whole blood, 30 min, read-out: In blood, prodrug 1b
  concentration at 30 min: ≤ 3 ng/mL
[1]; male, Han Wistar, whole blood, 60 min, read-out: In blood, prodrug 1b
  concentration at 60 min: ≤ 3 ng/mL

## Cc1cc2c(c(C)c1Cl)N(CC(=O)O)C(=O)CO2 [compound 1, (6-chloro-5,7-dimethyl-3-oxo-2,3-dihydro-4H-1,4-benzoxazin-4-yl) acetic acid]
MDR1 (P-glycoprotein)
  Substrate for P-glycoprotein: not a substrate
[2]; 0 - 8 h
  Absolute amount of drug recovered in urine: 8.67 µg
  Amount of drug in urine recovered: 30.3 % Dose
[2]; 8 - 24 h
  Absolute amount of drug recovered in urine: 0.15 µg
  Amount of drug in urine recovered: 0.5 % Dose
